Reference: patent US20250206734A1, “BICYCLIC HETEROCYCLES AS MRGPRX2 ANTAGONISTS” (Incyte Corporation, priority 2023, published 2025)

Assays:
Format in all cases: cell-based
MRGPRX2 [1] = target: T1, MRGPRX2 (Homo sapiens, UniProt Q96LB1); assay: MRGPRX2 FLIPR Calcium Mobilization Assay; set-up: host or cells: CHO-K1; conditions: CHO-K1 cells stably expressing human MRGPRX2; Ca2+ release; agonist Cortistatin-14 at EC80
T1 sequence (Q96LB1 1-330): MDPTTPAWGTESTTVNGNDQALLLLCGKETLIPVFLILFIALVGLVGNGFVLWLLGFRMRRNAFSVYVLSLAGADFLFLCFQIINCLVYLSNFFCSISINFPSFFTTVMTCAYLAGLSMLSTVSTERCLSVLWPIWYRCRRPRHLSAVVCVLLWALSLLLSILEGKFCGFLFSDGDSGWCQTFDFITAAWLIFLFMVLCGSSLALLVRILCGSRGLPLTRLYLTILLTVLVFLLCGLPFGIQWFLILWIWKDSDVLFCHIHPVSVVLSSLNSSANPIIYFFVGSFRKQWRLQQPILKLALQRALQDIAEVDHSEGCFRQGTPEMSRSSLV
Description: Example A. MRGPRX2 FLIPR Calcium Mobilization Assay
Chinese hamster ovary (CHO-K1) cells stably expressing human MRGPRX2 were purchased from Genescript (Piscataway, NJ). The cells were maintained in culture medium (Ham's F-12K) containing 10% (v/v) FBS, 200 μg/mL Zeocin, 100 units/mL penicillin G and 100 μg/mL streptomycin (Life Technologies, Carlsbad, CA). For the assay, the cells were harvested and resuspended with culture medium without Zeocin before plating at 8000 cells per well in 20 μL in 384-well black clear bottom cell culture plates (VWR, Radnor, PA). After 24 hour culture at 37° C. and 5% CO2, the cells were loaded with 20 μL/well of calcium dye (FLIPR Calcium 6 Assay Kit, Molecular Devices, San Jose, CA) diluted in loading buffer (1× Hank's Balanced Salt Solution (HBSS), 5 mM probenecid, 20 mM 4-(2-hydroxyethyl)-1-piperazineethanesulfonic acid (HEPES), pH 7.4, VWR, Radnor, PA) followed with 45 min incubation at 37° C. and 40 min. at r.t. in the dark. Cells were then treated with the addition of 10 uL/well test compounds with a range of increasing concentrations diluted in the assay buffer (1×HBSS, 20 mM HEPES, pH 7.4, VWR, Radnor, PA) with FLIPR Penta (Molecular Devices. San Jose, CA) and incubated for 30 min. at r.t. Ca^2+ release was measured with FLIPR Penta with 10 s basal fluorescence measurement, then 12.5 μL of 5× agonist Cortistatin-14 (Tocris, Minneapolis, MN) at final concentration corresponding to the EC80 were added followed with continued fluorescence signal monitoring for an additional 110 s. The base line adjusted (median of first 10s base line) max value of the Relative Fluorescence Unit (RFU) was plotted against compound concentrations. Wells with no compound were served as the positive controls, and wells with high concentration of reference antagonist were used as negative controls. IC50 curves were globally fitted with 3- or 4-parameter Hill equation in a Genedata Screener (Genedata Basel, Switzerland).

MRGPRX2 [2] = target: T1, MRGPRX2; assay: MRGPRX2 IP1 HTRF Assay; set-up: host or cells: CHO-K1; conditions: CHO-K1 cells stably expressing human MRGPRX2; IP1 accumulation; agonist Cortistatin 14 1 μM
Text: Example B: MRGPRX2 IP1 HTRF Assay
This assay measures compound inhibition of myo-Inositol 1 phosphate (IP1) accumulation in CHO-K1 cells. Chinese hamster ovary (CHO-K1) cells stably expressing human MRGPRX2 were purchased from GenScript (Piscataway, NJ).
For the HTRF IP1 determination, an IP-One GqKit (Perkin Elmer Cisbio, Waltham, MA), which includes all reagents and buffers in this protocol, was used. The cells were maintained in culture medium (Ham's F-12K) containing 10% (v/v) FBS, and 200 μg/mL Zeocin. For the assay, the cells were harvested and resuspended in culture medium with 2% FBS and without Zeocin, then were passed through a 40 μm filter. Cells were added at 20000 cells in a 5 μL/well to a 384-well white small volume cell culture plate (Greiner VWR, Radnor, PA) which contained 50 nL/well of test compound serially diluted at a selected concentration range in DMSO. 5 μL/well of prepared 2× Stimulation Buffer2 was then added to plates and was incubated at 37° C. with 5% CO2 for 1 h. 5 μL/well of agonist Cortistatin 14 (Bio-TechneR&D Systems, Minneapolis, MN) in 1× Stimulation Buffer 2, for a 1 μM final concentration, was then added to plates and incubated at 37° C. with 5% CO2 for 1 h. 6 μL/well of 1:20 diluted Detection Reagent Mix (d2 and Cryptate) was added to the plates and incubated for 1 h in the dark. Plates were read on the PHERAstar microplate reader (BMG Labtech Cary, NC) to determine the HTRF ratio of the acceptor and donor emission signals. The IP1 concentrations were calculated from a standard curve following the IP-One GQ kit instructions. Wells with DMSO only and wells with high concentration of reference antagonist were used as controls for normalization. Compound IC50 curves were globally fitted with 3- or 4-parameter Hill equation in a Genedata Screener (Genedata Basel, Switzerland).

MRGPRX2 [3] = target: T1, MRGPRX2; assay: MRGPRX2 β-Arrestin Assay; set-up: host or cells: PathHunter CHO-K1; conditions: PathHunter CHO-K1 MRGPRX2 β-Arrestin cell line; agonist Cortistatin 14 0.25 μM
Text: Example C: MRGPRX2 β-Arrestin Assay
This assay measures compound inhibition of β-Arrestin recruitment, which is part of the G protein-independent pathway that results from the ligand-activated GPCR phosphorylation by specific GPCR kinases. The PathHunter CHO-K1 MRPGRX2 B-Arrestin Cell line stably expressing ProLink tagged MRGPRX2 and Enzyme Acceptor Tagged B-Arrestin was purchased from Eurofins DiscoverX, (Fremont, CA).
The cells were maintained in culture medium from the Europhins DiscoverX Cell Culture Kit-107 which includes FBS, hygromycin B and G418. For the assay, the cells were harvested and were resuspended with Cell Plating Reagent 2 (Eurofins DiscoverX). Cells were added 10000 cells in 25 μL/well to a 384-well black cell culture plate (Greiner VWR, Radnor, PA) which contained 125 nL/well of compound at a selected serially diluted concentration range or DMSO. The plate was incubated at 37° C. with 5% CO2 for 1 h. 2 μL/well of agonist Cortistatin 14 was diluted in Protein Dilution Buffer, (Eurofins DiscoverX) for a final concentration of 0.25 μM, was added and the plate was incubated at 37° C. with 5% CO2 for 90 min. 14 μL/well of Detection Reagent Mix (PathHunter Detection Kit, Eurofins DiscoverX) was added to the plates and further incubated for 1 h in the dark. Plates were read on the PHERAstar microplate reader (BMG Labtech Cary, NC) measuring luminescence 0.1 to 1 s per well. Data was normalized using DMSO only wells and wells with high concentration of reference antagonist as controls. Compound IC50 curves were globally fitted with 3- or 4-parameter Hill equation in a Genedata Screener (Genedata Basel, Switzerland).

Question: What does the source list for CC(c1cc2ncc(Oc3ccc(F)cc3F)cc2cn1)N1CCCC1c1ccccc1 (stereo not drawn) [Example 3, 3-(2,4-Difluorophenoxy)-7-(1-(2-phenylpyrrolidin-1-yl)ethyl)-1,6-naphthyridine]?
Answer: IC50 (MRGPRX2 [1]): 0.1 to 100 nM; IC50 (MRGPRX2 [2]): 0.1 to 100 nM; IC50 (MRGPRX2 [3]): 0.1 to 100 nM

Question: With CC(c1cc2ncc(Oc3ccc(F)cc3F)cc2cn1)N1CCC(F)(F)C(c2ccc(=O)[nH]c2)C1 (stereo not drawn) [Example 4, 5-(1-(1-(3-(2,4-Difluorophenoxy)-1,6-naphthyridin-7-yl)ethyl)-4,4-difluoropiperidin-3-yl)pyridin-2(1H)-one] as the compound, how does the IC50 (MRGPRX2 [1]) read?
Answer: 0.1 to 100 nM

Question: What about the IC50 (MRGPRX2 [2]) of the same compound?
Answer: 0.1 to 100 nM

Question: And the IC50 (MRGPRX2 [3])?
Answer: 0.1 to 100 nM

Question: What does the source list for Fc1ccc(Oc2cnc3cc(C(N4CCCCC4)C(F)(F)F)ncc3c2)c(F)c1 (stereo not drawn) [Example 5, 3-(2,4-Difluorophenoxy)-7-(2,2,2-trifluoro-1-(piperidin-1-yl)ethyl)-1,6-naphthyridine]?
Answer: IC50 (MRGPRX2 [1]): 0.1 to 100 nM; IC50 (MRGPRX2 [2]): 100 to 1000 nM; IC50 (MRGPRX2 [3]): 0.1 to 100 nM

Question: Which IC50 (MRGPRX2 [1]) does the source give for Fc1ccc(Oc2cnc3cc(C(N4CCC(F)(F)CC4)C(F)(F)F)ncc3c2)c(F)c1 (stereo not drawn) [Example 6, 3-(2,4-Difluorophenoxy)-7-(1-(4,4-difluoropiperidin-1-yl)-2,2,2-trifluoroethyl)-1,6-naphthyridine] here?
Answer: 0.1 to 100 nM

Question: And the IC50 (MRGPRX2 [2])?
Answer: 0.1 to 100 nM

Question: And the IC50 (MRGPRX2 [3])?
Answer: 0.1 to 100 nM

Question: With Fc1ccc(Oc2cnc3cc(C(N4CCCC4c4ccccc4)C(F)(F)F)ncc3c2)c(F)c1 (stereo not drawn) [Example 7, 3-(2,4-Difluorophenoxy)-7-(2,2,2-trifluoro-1-(2-phenylpyrrolidin-1-yl)ethyl)-1,6-naphthyridine] as the compound, how does the IC50 (MRGPRX2 [1]) read?
Answer: 0.1 to 100 nM

Question: And the IC50 (MRGPRX2 [2])?
Answer: 0.1 to 100 nM

Question: What about the IC50 (MRGPRX2 [3]) of the same compound?
Answer: 0.1 to 100 nM

Question: What does the source list for Fc1ccc(Oc2cnc3cc(C(N4CCCC4c4ccncc4)C(F)(F)F)ncc3c2)c(F)c1 (stereo not drawn) [Example 12, 3-(2,4-Difluorophenoxy)-7-(2,2,2-trifluoro-1-(2-(pyridin-4-yl)pyrrolidin-1-yl)ethyl)-1,6-naphthyridine]?
Answer: IC50 (MRGPRX2 [1]): 0.1 to 100 nM; IC50 (MRGPRX2 [2]): 0.1 to 100 nM; IC50 (MRGPRX2 [3]): 0.1 to 100 nM

Question: Which results are given for NC(=O)[C@@H]1CCCN1C(c1cc2ncc(Oc3ccc(F)cc3F)cc2cn1)C(F)(F)F (stereo partly drawn) [Example 14, (2S)-1-(1-(3-(2,4-Difluorophenoxy)-1,6-naphthyridin-7-yl)-2,2,2-trifluoroethyl)pyrrolidine-2-carboxamide]?
Answer: IC50 (MRGPRX2 [1]): 0.1 to 100 nM; IC50 (MRGPRX2 [2]): 0.1 to 100 nM; IC50 (MRGPRX2 [3]): 0.1 to 100 nM

Question: COc1ccc(C2CCCN2C(c2cc3ncc(Oc4ccc(F)cc4F)cc3cn2)C(F)(F)F)cc1 (stereo not drawn) [Example 15, 3-(2,4-Difluorophenoxy)-7-(2,2,2-trifluoro-1-(2-(4-methoxyphenyl)pyrrolidin-1-yl)ethyl)-1,6-naphthyridine] was tested. Which IC50 (MRGPRX2 [1]) did it give?
Answer: 0.1 to 100 nM

Question: And the IC50 (MRGPRX2 [2])?
Answer: 0.1 to 100 nM

Question: And the IC50 (MRGPRX2 [3])?
Answer: 0.1 to 100 nM

Question: What does the source list for O=c1ccc(C2CCCN(C(c3cc4ncc(Oc5ccc(F)cc5F)cc4cn3)C(F)(F)F)C2)cn1CC(F)(F)F (stereo not drawn) [Example 16, 5-(1-(1-(3-(2,4-Difluorophenoxy)-1,6-naphthyridin-7-yl)-2,2,2-trifluoroethyl)piperidin-3-yl)-1-(2,2,2-trifluoroethyl)pyridin-2(1H)-one]?
Answer: IC50 (MRGPRX2 [1]): 0.1 to 100 nM; IC50 (MRGPRX2 [2]): 0.1 to 100 nM; IC50 (MRGPRX2 [3]): 0.1 to 100 nM
